According to patent US20240350497A1, “COMBINATION THERAPY FOR THE TREATMENT OF PAN-KRAS MUTATED CANCERS” (Tiziana Life Sciences PLC, priority 2021, published 2024):
Where two headings read alike, the source gives them in different places.

How the values were obtained:
[1] = system: cell lines harboring KRAS mutations; test: sensitivity of KRAS mutant cell lines to CDK inhibitor in vitro; type: cell-based
Description: (§1) FIG. 7A and FIG. 7B are plots showing dose-response curves of colorectal non-isogenic cells containing either wild type (WT) or mutated KRAS in response to CDK inhibitors AT7519 (FIG. 7A) or dinaciclib (FIG. 7B). The cyclin-dependent kinase, CDK1, is a synthetic lethal target for KRAS mutant tumors. KRAS mutant cells show increased activity of CDK1 (FIGS. 6A-6D). The inhibition of CDK1 causes a reduction in the S-phase of the cell cycle progression decreasing cell proliferation in KRAS mutant cells. This decreased cell cycle activity is observed by the modulation of Rb, a master control of the G1/S checkpoint. Through a series of experiments, including using parallel siRNA screens in KRAS mutant and wild type colorectal isogenic tumor cells and subsequently validated in a genetically diverse panel of 26 colorectal and pancreatic tumor cell models, the KRAS/CDK1 interaction has a synthetic lethal effect on cancer cells.

[2] = system: KRAS mutant tumor xenografts; test: KRAS mutant tumor xenografts treated with CDK inhibitor in vivo; set-up: species or system mice
Description: FIG. 8A is a plot showing the change in tumor volume of KRAS mutant tumor xenografts in mice treated with vehicle control (DMSO) or the CDK inhibitor AZD5438.
FIG. 8B is a plot showing the percent survival of mice harboring KRAS mutant tumor xenografts following treatment with either vehicle control (DMSO) or the CDK inhibitor AZD5438. FIG. 8C is a chart showing the tumor weight in mice harboring KRAS mutant tumor xenografts following treatment with either vehicle control (DMSO) or the CDK inhibitor AZD5438. FIG. 8D is a series of images showing tumor shrinkage in mice harboring KRAS mutant tumor xenografts following treatment with the CDK inhibitor AZD5438.
as §1, with “The” for “FIG. 7A and FIG. 7B are plots showing dose-response curves of colorectal non-isogenic cells containing either wild type (WT) or mutated KRAS in response to CDK inhibitors AT7519 (FIG. 7A) or dinaciclib (FIG. 7B). The”

[3] = system: HCT-116 human colon carcinoma; test: milciclib in combination with 5-FU, HCT-116 human colon carcinoma xenograft; details: for animal deaths: single agents at the tested doses
Procedure: (§2) The efficacy of milciclib was tested in several human xenografts implanted in the hind flank region of athymic mice (FIG. 18). Models in nude mice included A2780 ovarian cancer, DU-145 prostatic cancer, BX-PC3 pancreatic cancer, A549 non-small cell lung cancer, MDA-MB-231 breast cancer, MIA-PACA-2 pancreatic cancer, A375 melanoma, CAPAN-1 pancreatic cancer, and HCT-116 colon cancer. The MIA-PACA-2 and CAPAN-1 pancreatic cancer cell lines both express KRAS mutants. The MIA-PACA-2 and CAPAN-1 cell lines tested with milciclib harbor the KRAS mutants, G12C and G12V, respectively. […] The HCT-116 colon cancer cell line expresses the G13D KRAS mutant, making up of 15.5% of CRC KRAS mutants Following implantation, tumors were allowed to establish to a size of 100 mm3 prior to oral administration of milciclib. In all these experiments, a daily bid treatment was administered for a maximum of 10 days.
Activity of milciclib has been tested in combination with 5-FU on HCT-116 human colon carcinoma cells (FIG. 10A). The HCT-116 cell line expresses the KRAS G13D mutant.

[4] = system: BX-PC3 human pancreatic carcinoma; test: milciclib in combination with gemcitabine, BX-PC3 human pancreatic carcinoma, second experiment; details: for animal deaths: single agents at the tested doses
Procedure: A second experiment was conducted of milciclib in combination with gemcitabine on BX-PC3 human pancreatic carcinoma (FIG. 12B and FIG. 12C).

[5] = system: BX-PC3 human pancreatic carcinoma; test: milciclib in combination with gemcitabine, BX-PC3 human pancreatic carcinoma, first experiment; details: for animal deaths: single agents at the tested doses
Procedure: A combination therapy of milciclib and the DNA damaging agent, gemcitabine, was treated on BX-PC3 human pancreatic carcinoma (FIG. 12A).

NSCLC = details: single agent, Phase II studies; cited from earlier work
[6] = system: HCT-116 human colon carcinoma; test: milciclib in combination with irinotecan, HCT-116 human colon carcinoma xenograft model; details: for animal deaths: single agents at the tested doses
Procedure: as §2
Topoisomerase enzymes control the manipulation of the structure of DNA necessary for replication.

[7] = system: KRAS G12D LA2 pulmonary cancerous lesions; test: transgenic mouse model KRAS G12D LA2, MRI; details: in vivo
Procedure: Milciclib was tested in a transgenic mouse model KRAS G12D LA2 that develops pulmonary cancerous lesions reminiscent of human lung adenocarcinomas. Milciclib was tested to follow longitudinal disease progression and evaluate therapeutic efficacy by using magnetic resonance imaging (MRI) and positron emission tomography (PET). […] The MRI methodology used in this study allow longitudinal monitoring of tumor development and response in a single animal, and furthermore, allows for more clinically relevant study design and increases its statistical relevance.

MDA-MB-231 cells = MDA-MB-231 cells exposed to milciclib and DNA damaging agent, alone or in combination; type: cell-based, human; details: TNBC cells
Procedure: The use of milciclib in combination with five chemotherapeutic drugs already in use was tested for the treatment of TNBC including paclitaxel, doxorubicin, 5-FU, cisplatin, and cyclophosphamide. Potential synergistic effects with milciclib by exposing MDA-MB-231 cells to serial dilutions of milciclib and each DNA damaging agent, alone or in combination, in clinically relevant concentrations (FIG. 16A). […] Tumor proliferation was reduced by nearly 5 times for the combination treatment of milciclib and cisplatin compared to the vehicle treated group, assessed by Ki67 staining.

[8] = system: MDA-MB-231 human breast cancer
Procedure: FIG. 15A is a series of plots showing change in tumor volume in mice bearing MDA-MB-231 human breast cancer tumor xenografts following treatment with 40 mg/kg milciclib (PHA-848125) (n=8) or vehicle control (5% glucose solution) (n=8) via oral gavage twice daily on a 5-days-on/2-days-off schedule for four weeks. FIG. 15B is a series of images and a chart showing immunohistochemistry staining of Ki67 and mitotic nucleus counts, and corresponding quantification in tumor tissue collected 48 hours after the last treatment with milciclib (PHA-848125) or vehicle control for 3 weeks.

[9] = system: advanced solid malignancies; details: oral, phase I; cited from earlier work
[10] = system: CAPAN-1 pancreatic cancer (KRAS G12V); test: human xenograft efficacy, CAPAN-1; type: in vivo, athymic mice; details: oral, daily bid treatment for a maximum of 10 days
[11] = system: A2780 human ovarian carcinoma; test: A2780 human ovarian carcinoma xenografts, oral milciclib; type: in vivo, mice
Procedure: Pathogenic KRAS mutations were present in 606 patients of 7,325 epithelial ovarian cancers from the Caris Database, about 8.3% of the total. The frequency of KRAS mutation by subtype occurred in the following: 36.4% G12D, 35.8% G12V, and 8.4% G12C. A dose-dependent inhibition of tumor growth was measured in mice harboring A2780 human ovarian carcinoma xenografts administered with daily oral administration of milciclib.

[12] = system: MIA-PACA-2 pancreatic cancer (KRAS G12C); test: human xenograft efficacy, MIA-PACA-2; type: in vivo, athymic mice; details: oral, daily bid treatment for a maximum of 10 days
[13] = system: N-592 human small cell carcinoma; details: for animal deaths: single agents at the tested doses
Procedure: Milciclib was tested orally at the doses of 20 and 30 mg/kg twice a day for 17 consecutive days.

[14] = milciclib 20 mg/kg orally twice a day for 9 consecutive days
[15] = milciclib 40 mg/kg orally twice a day for 9 consecutive days

O=C(NC1CCNCC1)c1[nH]ncc1NC(=O)c1c(Cl)cccc1Cl [AT519]
sensitivity of KRAS mutant versus wild type cells [1]: increased sensitivity

Cc1ncc(-c2ccnc(Nc3ccc(S(C)(=O)=O)cc3)n2)n1C(C)C [AZD5438]
sensitivity of KRAS mutant tumors [2]: increased sensitivity

O=c1[nH]cc(F)c(=O)[nH]1 [Compound 5-FU, 5-fluorouracil, reference compound]
TGI ([3]; 5-FU 50 mg/kg IV q7dx2): 33% | animal deaths [3]: No animal died

Nc1ccn([C@@H]2O[C@H](CO)[C@@H](O)C2(F)F)c(=O)n1 [gemcitabine, reference compound]
TGI ([4]; gemcitabine 80 mg/kg IV q4dx3): 70% | TGI ([4]; gemcitabine 80 mg/kg IV q7dx3): 62% | animal deaths [4]: No animal died | TGI ([5]; gemcitabine 80 mg/kg IV): 61% | animal deaths [5]: No animal died | median survival (NSCLC): 9 months | objective response rate (NSCLC): 20-25%

CCc1c2c(nc3ccc(OC(=O)N4CCC(N5CCCCC5)CC4)cc13)-c1cc3c(c(=O)n1C2)COC(=O)[C@]3(O)CC [irinotecan, reference compound]
TGI ([6]; irinotecan 45 mg/kg IV q4dx3): 84% | animal deaths [6]: No animal died

CNC(=O)c1nn(C)c2c1C(C)(C)Cc1cnc(Nc3ccc(N4CCN(C)CC4)cc3)nc1-2 [milciclib, N,1,4,4-tetramethyl-8-((4-(4-methylpiperazin-1-yl)phenyl)amino)-4,5-dihydro-1H-pyrazolo[4,3-h]quinazoline-3-carboxamide]
TGI ([3]; milciclib 20 mg/kg orally twice a day for 12 days): 42% | TGI ([3]; milciclib 30 mg/kg orally twice a day for 12 days): 64% | animal deaths [3]: No animal died | tumor growth inhibition at the end of treatment, measured by MRI [7]: significant tumor growth inhibition | interaction with cisplatin, cisplatin-induced apoptosis (MDA-MB-231 cells): acts synergistically | tumor growth ([8]; 40 mg/kg oral gavage twice daily, 5-days-on/2-days-off): arrests tumor growth | tolerability ([8]; mouse, in vivo): well tolerated | RP2D [9]: 150 mg/day | tolerability [9]: well-tolerated | maximal inhibition [10]: 65% | tumor growth inhibition (TGI) ([11]; 20 mg/kg bid): 53% | tumor growth inhibition (TGI) ([11]; 30 mg/kg bid): 76% | tumor growth inhibition (TGI) ([11]; 40 mg/kg bid): 91% | maximal inhibition [12]: 70% | TGI [4, 14]: 74% | TGI ([4]; milciclib 20 mg/kg twice a day for 15 days): 80% | TGI [4, 15]: 88% | animal deaths [4]: No animal died | TGI ([6]; milciclib 20 mg/Kg orally twice a day for 9 days): 38% | TGI ([6]; milciclib 30 mg/Kg orally twice a day for 9 days): 60% | animal deaths [6]: No animal died | TGI ([13]; milciclib 20 mg/kg orally twice a day for 17 consecutive days): 34% | TGI ([13]; milciclib 30 mg/kg orally twice a day for 17 consecutive days): 56% | animal deaths [13]: No animal died | TGI [5, 14]: 61% | TGI [5, 15]: 79% | animal deaths [5]: No animal died

CC[C@@]1(O)C(=O)OCc2c1cc1n(c2=O)Cc2cc3c(CN(C)C)c(O)ccc3nc2-1 [topotecan, reference compound]
animal deaths [13]: No animal died | TGI ([13]; topotecan 6 mg/kg IV q4dx5): 71%
